# Results: US9844535B2, “SHP2 inhibitors and methods of treating autoimmune and/or glomerulonephritis-associated diseases using SHP2 inhibitors” (Indiana University Research and Technology Corporation, priority 2013, dated 2017)
# Entries after “also recorded” stand apart in the source; their conditions may differ.
# Assays:
# SHP2 = SHP2 (Mus musculus (Mouse), UniProt P35235); test: Immune complex PTP assay on tissue lysates of inhibitor-treated MRL/lpr mice; assay type: in vivo; details: 7.5 mg/kg daily for 4 weeks, listed as SHP2 inhibitor
# Experimental: Briefly, female MRL/MpJ-fas lpr (MRL/lpr), MRL/Mpj and C57BL/6J mice were purchased from the Jackson Laboratory (Bar Harbor, Me.). For experiments, mice within each group were ip injected with either vehicle (DMSO) or the SHP2 inhibitor (7.5 mg/kg/per day). […] Body weight was measured daily and treatment dosage was adjusted accordingly. At the end of the treatment period, mice were sacrificed with CO2 exsanguination and SLE targeted organs were removed. For each mouse, spleen, kidney, and heart weight were calculated. In addition, total animal body weight and tibia length were measured. Peripheral blood/serum was also collected for use in the cytokine assays described below.
# PTP assays were conducted as previously described in Kontaridis et al., J Biol Chem. 2006; 281:6785-6792, using para-nitrophenyl phosphate (pNPP, obtained from Sigma) as substrate. […] Reactions were terminated with 0.2 N NaOH and phosphate release was determined by measuring A410. […]
# [1] = test system: MRL/lpr mouse kidney immune cells; test: Flow cytometry of immune cells infiltrating the kidney; assay type: in vivo; details: MRL/lpr mice vs vehicle
# Experimental: Kidney, spleen, lung, and axillary lymph nodes were excised from either vehicle or drug-treated mice, and single cell suspensions were obtained by teasing the organs through a nylon mesh. Briefly, kidneys were cut into small pieces and homogenized on a 70 μm nylon mesh in 5 ml of Hank's Balanced Salt Solution (HBSS) buffer. All of the homogenized tissues and cells were transferred to new 50 ml tubes and digested with collagenase type 4 (100 ug/ml) (Worthington Biochemical Corp., Freehold, N.J.) in HBSS for 30 minutes to 2 hours (37° C.) on a rotating shaker. After digestion, the cells were centrifuged at 2000 rpm for 10 minutes, and the kidney cell isolates were generated, which included infiltrated immune cell subsets.
# To identify immune cell subsets, isolated cells from tissues were immunostained with mouse antibodies targeted against CD3E (145-2C11, BioLegend, San Diego, Calif.), CD4 (GK1.5, BioLegend), CD8 (53-6.7, eBioscience, San Diego, Calif.), CD45 (30-F11, eBioscience), CD 19 (6125, BioLegend), CD11b (M1170, BioLegend), TCRαβ (H57-597, BioLegend), CD44 (IM7, BioLegend), B220 (RA3-6B2, B.D. […], BD Biosciences, San Jose Calif.), CD138 (281-2, BioLegend), CD38 (CD28.2, BioLegend), Gr-1 (RB6.805, eBioscience), CD62L (DREG-56, BioLegend), and CD25 (PC61, BioLegend) for 30 minutes at 4° C. Samples were acquired on a LSR II flow cytometer (BD Biosciences) and the percentage of each sub-population of cells (B, T, monocytes, macrophage and neutrophils) was assessed by FlowJo [version 7.2.2 (Tree Star)]. Total cell numbers were counted using a hemocytometer. Absolute cell numbers for each sub-population were calculated based on the percentage of each population.
# B cells, T cells, macrophage and neutrophils from the MRL/lpr inhibitor-treated and vehicle-treated mouse kidneys of Example 9 were isolated.
# Chain of SHP2 (P35235 whole entry): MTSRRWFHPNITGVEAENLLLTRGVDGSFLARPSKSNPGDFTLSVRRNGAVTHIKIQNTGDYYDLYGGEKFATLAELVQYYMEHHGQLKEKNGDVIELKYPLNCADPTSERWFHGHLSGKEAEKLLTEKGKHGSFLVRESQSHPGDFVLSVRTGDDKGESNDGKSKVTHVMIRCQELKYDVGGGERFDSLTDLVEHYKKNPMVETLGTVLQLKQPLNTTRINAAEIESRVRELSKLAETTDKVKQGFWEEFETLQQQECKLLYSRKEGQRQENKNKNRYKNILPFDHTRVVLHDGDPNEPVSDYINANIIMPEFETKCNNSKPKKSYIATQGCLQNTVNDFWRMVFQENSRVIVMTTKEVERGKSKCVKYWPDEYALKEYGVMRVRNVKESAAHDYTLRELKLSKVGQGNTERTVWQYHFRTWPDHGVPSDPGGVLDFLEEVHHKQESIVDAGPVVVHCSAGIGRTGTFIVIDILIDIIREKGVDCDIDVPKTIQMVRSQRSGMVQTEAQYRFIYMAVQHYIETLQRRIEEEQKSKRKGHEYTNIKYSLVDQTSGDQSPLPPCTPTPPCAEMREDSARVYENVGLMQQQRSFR
smiles,measurement,setting,value
Cn1c(-c2cccc(NC(=O)C(=O)Nc3ccc(-c4ccsc4)cc3)c2)c(I)c2cc(C(=O)O)c(O)cc21 [11a-1],SHP2 activity in tissue lysates,SHP2,normalized SHP2 activity back to levels of WT; also recorded: normalize SHP2 activity
same,B cells in kidney,[1],no discernable differences
same,infiltrating T cells in the SLE kidney,[1],"significantly reducing the overall number of CD4, CD8, and double-negative T cells"
same,infiltrating neutrophils and macrophages in kidney,[1],significant reduction in numbers of infiltrating neutrophils and macrophages
